Source: patent US8722731B2, “Furanyl compounds and the use thereof” (NovoMedix, LLC, priority 2010, dated 2014)
Read-outs that look alike come from different tables or passages of the source.

Tests used:
[1] = test system: MDA-MB-231; test: IC50 cell-based assay, adherent cells, MDA-MB-231; settings: Homo sapiens, Breast, triple neg, 72 hours, read-out: IC50 of Compounds in Adherent Cell Types
Experimental: (§1) In one embodiment, the IC50s of the compounds provided herein were determined in cell-based assays using adherent cells. In one embodiment, the activity of the compounds provided herein were determined in a cell-based assay using the triple negative breast cancer cell line MDA-MB-468. In one embodiment, the adherent cells used in the cell-based assays may be a cell type selected from Table 1. In one embodiment, the cell-based assay may be carried out as provided herein. On day 0, cells were seeded at 20,000 cells per well in 100 µL of media into individual wells of a 96-well tissue culture plate. The next day, compounds were diluted to twice the desired final concentration and added in 100 µL of media for a final volume of 200 μL. Standard solutions for each compound were prepared at 1000× concentration in DMSO. The highest concentration was 30 mM. Serial 1:1 dilutions were made from there for a 6- or 9-point curve (e.g., 30 mM, 15 mM, 7.5 mM, etc). Compounds were then diluted 1:500 in media, and 100 µL of the resulting solution was added to each well for a final dilution of 1:1000. Each concentration of compound was tested in triplicate. Cells were incubated at 37° C. with 5% CO2. After 72 hours, 20 μL of CellTiter 96 Aqueous One Solution Cell Proliferation Assay (Promega) was added to each well. Cells were placed back in the incubator, and the absorbance at 490 nm was read after 2-3 hours. The concentration of compound that decreased the number of metabolically active cells by 50% was determined and reported as the IC50. “Percent Viability” was determined by subtracting the average background value (media only) and expressed as a ratio to the average value obtained from cells treated with only DMSO.

[2] = test system: triple negative breast cancer cell line MDA-MB-468; test: IC50 cell-based assay, adherent cells, MDA-MB-468; settings: Homo sapiens
Experimental: as §1
The IC50s of the compounds provided herein were determined in cell-based assay using triple negative breast cancer cell line MDA-MB-468.

[3] = test system: Nalm-6; test: IC50 cell-based assay, suspension cells, Nalm-6; settings: Homo sapiens, Leukemia, B-ALL, read-out: IC50 of Compounds in Suspension Cell Types
Experimental: as §1
(§2) In one embodiment, the IC50s of the compounds provided herein were determined in cell-based assays using suspension cells. In one embodiment, the activity of the compounds provided herein were determined in a cell-based assay using the JeKo-1 cell line (mantle cell lymphoma) or the Pfeiffer cell line (diffuse large B-cell lymphoma). In one embodiment, the suspension cells used in the cell-based assays may be a cell type selected from Table 2. Assays with suspension cells were similar except that 40,000-60,000 cells were added to each well and compounds were added immediately after cell plating.

[4] = test system: Kg1a; test: IC50 cell-based assay, suspension cells, Kg1a; settings: Homo sapiens, KG-1a, Leukemia, AML, read-out: IC50 of Compounds in Suspension Cell Types
Experimental: as §1, §2

[5] = Percent weight change of animals in MDA-MB-468 xenograft study; format: in vivo, Mouse/SCID; settings: qd 50 mg/kg IP, SCID mice
Experimental: In one embodiment, the effects of a compound provided herein on tumor growth in a mouse animal model were evaluated. In specific embodiments, the mouse animal model was the MDA-MB-468 xenograft model for breast cancer. Studies were performed to evaluate the effect of a compound provided herein on the growth of MDA-MB-468 breast tumors in mice. The test system that was used is summarized below:
Exemplary Protocol: Ten mice per group were inoculated s.c. on the left flank with 5×10^6 MDA-MB-468 cells. When tumors reached a mean volume of 100 or 200 mm^3, animals began treatment with a compound provided herein (See Table 4). Test article or vehicle were given once daily by IP injection for up to 21 days. Tumors were evaluated every Monday, Wednesday and Friday, body weights and condition were evaluated on a daily basis.
Animal Weight: All animals were weighed […] throughout the study. Group weight change was expressed as a daily group mean weight. Animals that lost greater than 20% of their total starting body weight were euthanized.
Compound 1 was dosed in mice at a dose of, for example, qd 50 mg/kg, for 22 days or more.
Compound 2 was dosed in mice at a dose of, for example, qd 20 mg/kg from day 0 to 7, then qd 10 mg/kg from day 8 and thereafter, for 22 days or more.

[6] = test system: RT-4; test: IC50 cell-based assay, adherent cells, RT-4; settings: Homo sapiens, Bladder, papilloma, 72 hours, read-out: IC50 of Compounds in Adherent Cell Types
Experimental: as §1

[7] = test system: 1937; test: IC50 cell-based assay, adherent cells, 1937; settings: Breast, triple neg, 72 hours, read-out: IC50 of Compounds in Adherent Cell Types
Experimental: as §1

[8] = test system: HT-29; test: IC50 cell-based assay, adherent cells, HT-29; settings: Homo sapiens, Colorectal, adenocarcinoma, 72 hours, read-out: IC50 of Compounds in Adherent Cell Types
Experimental: as §1

[9] = test system: MCF-7; test: IC50 cell-based assay, adherent cells, MCF-7; settings: Homo sapiens, MCF7, Breast, ER+, 72 hours, read-out: IC50 of Compounds in Adherent Cell Types
Experimental: as §1

[10] = test system: A431; test: IC50 cell-based assay, adherent cells, A431; settings: Homo sapiens, A-431, Skin, epidermoid carcinoma, 72 hours, read-out: IC50 of Compounds in Adherent Cell Types
Experimental: as §1

[11] = test system: FaDu; test: IC50 cell-based assay, adherent cells, FaDu; settings: Homo sapiens, Pharynx, squamous cell, 72 hours, read-out: IC50 of Compounds in Adherent Cell Types
Experimental: as §1

[12] = test system: Hep-G2; test: IC50 cell-based assay, adherent cells, Hep-G2; settings: Homo sapiens, HepG2, Liver, hepatocellular carcinoma, 72 hours, read-out: IC50 of Compounds in Adherent Cell Types
Experimental: as §1

[13] = test system: SK-MEL-28; test: IC50 cell-based assay, adherent cells, SK-MEL-28; settings: Homo sapiens, Melanoma, 72 hours, read-out: IC50 of Compounds in Adherent Cell Types
Experimental: as §1

[14] = test system: HL-60; test: IC50 cell-based assay, suspension cells, HL-60; settings: Homo sapiens, Leukemia, AML, read-out: IC50 of Compounds in Suspension Cell Types
Experimental: as §1, §2

Structure (SMILES): O=C(Nc1cc(C(F)(F)F)cc(C(F)(F)F)c1)c1cc(-c2ccccc2)oc1C(F)(F)F [Compound 1, 5-Phenyl-2-trifluoromethyl-furan-3-carboxylic acid (3,5-bis-trifluoromethyl-phenyl)-amide]
- IC50 [1]: < 5 µM
- IC50 ([2]; MDA-MB-468, Breast, triple neg, 72 hours, Table 1, read-out: IC50 of Compounds in Adherent Cell Types): < 5000 nM
- IC50 ([2]; MDA-MB-468 cells, Table 3, read-out: IC50 of Compounds in MDA-MB-468 Cells): 1500 nM
- IC50 [3]: < 5 µM
- IC50 [4]: < 5 µM
- Percent Weight Change of Control and Treated Animals, mean ([5]; Day 1): 0.00%
- Percent Weight Change of Control and Treated Animals, mean ([5]; Day 2): −0.44%
- Percent Weight Change of Control and Treated Animals, mean ([5]; Day 3): −1.43%
- Percent Weight Change of Control and Treated Animals, mean ([5]; Day 4): −2.23%
- Percent Weight Change of Control and Treated Animals, mean ([5]; Day 5): −2.06%
- Percent Weight Change of Control and Treated Animals, mean ([5]; Day 6): −2.03%
- Percent Weight Change of Control and Treated Animals, mean ([5]; Day 7): −3.50%
- Percent Weight Change of Control and Treated Animals, mean ([5]; Day 8): −4.53%
- Percent Weight Change of Control and Treated Animals, mean ([5]; Day 9): −2.38%
- Percent Weight Change of Control and Treated Animals, mean ([5]; Day 10): −3.42%
- Percent Weight Change of Control and Treated Animals, mean ([5]; Day 11): −1.63%
- Percent Weight Change of Control and Treated Animals, mean ([5]; Day 12): 1.40%
- Percent Weight Change of Control and Treated Animals, mean ([5]; Day 13): 1.13%
- Percent Weight Change of Control and Treated Animals, mean ([5]; Day 14): −0.56%
- Percent Weight Change of Control and Treated Animals, mean ([5]; Day 15): 2.28%
- Percent Weight Change of Control and Treated Animals, mean ([5]; Day 16): 2.07%
- Percent Weight Change of Control and Treated Animals, mean ([5]; Day 17): 2.03%
- Percent Weight Change of Control and Treated Animals, mean ([5]; Day 18): 2.87%
- Percent Weight Change of Control and Treated Animals, mean ([5]; Day 19): 4.84%
- Percent Weight Change of Control and Treated Animals, mean ([5]; Day 20): 0.92%
- Percent Weight Change of Control and Treated Animals, mean ([5]; Day 21): 1.87%
- Percent Weight Change of Control and Treated Animals, mean ([5]; Day 22): 0.07%
- IC50 [6]: 10 to 20 µM
- IC50 [7]: < 5 µM
- IC50 [8]: < 5 µM
- IC50 [9]: < 5 µM
- IC50 [10]: < 5 µM
- IC50 [11]: < 5 µM
- IC50 [12]: 5 to 10 µM
- IC50 [13]: < 5 µM
- IC50 [14]: < 5 µM
